Measured values taken from article PMC3567212 (Biochemistry, 2012).
Positions count from the first letter of the chain named.

Tests used:
[1] = target: T1, Rhizobium etli pyruvate carboxylase (RePC) (Rhizobium etli, UniProt Q2K340, R427S); assay: coupled spectrophotometric assay; assay type: biochemical
T1 sequence (Q2K340 1-1154 R427S): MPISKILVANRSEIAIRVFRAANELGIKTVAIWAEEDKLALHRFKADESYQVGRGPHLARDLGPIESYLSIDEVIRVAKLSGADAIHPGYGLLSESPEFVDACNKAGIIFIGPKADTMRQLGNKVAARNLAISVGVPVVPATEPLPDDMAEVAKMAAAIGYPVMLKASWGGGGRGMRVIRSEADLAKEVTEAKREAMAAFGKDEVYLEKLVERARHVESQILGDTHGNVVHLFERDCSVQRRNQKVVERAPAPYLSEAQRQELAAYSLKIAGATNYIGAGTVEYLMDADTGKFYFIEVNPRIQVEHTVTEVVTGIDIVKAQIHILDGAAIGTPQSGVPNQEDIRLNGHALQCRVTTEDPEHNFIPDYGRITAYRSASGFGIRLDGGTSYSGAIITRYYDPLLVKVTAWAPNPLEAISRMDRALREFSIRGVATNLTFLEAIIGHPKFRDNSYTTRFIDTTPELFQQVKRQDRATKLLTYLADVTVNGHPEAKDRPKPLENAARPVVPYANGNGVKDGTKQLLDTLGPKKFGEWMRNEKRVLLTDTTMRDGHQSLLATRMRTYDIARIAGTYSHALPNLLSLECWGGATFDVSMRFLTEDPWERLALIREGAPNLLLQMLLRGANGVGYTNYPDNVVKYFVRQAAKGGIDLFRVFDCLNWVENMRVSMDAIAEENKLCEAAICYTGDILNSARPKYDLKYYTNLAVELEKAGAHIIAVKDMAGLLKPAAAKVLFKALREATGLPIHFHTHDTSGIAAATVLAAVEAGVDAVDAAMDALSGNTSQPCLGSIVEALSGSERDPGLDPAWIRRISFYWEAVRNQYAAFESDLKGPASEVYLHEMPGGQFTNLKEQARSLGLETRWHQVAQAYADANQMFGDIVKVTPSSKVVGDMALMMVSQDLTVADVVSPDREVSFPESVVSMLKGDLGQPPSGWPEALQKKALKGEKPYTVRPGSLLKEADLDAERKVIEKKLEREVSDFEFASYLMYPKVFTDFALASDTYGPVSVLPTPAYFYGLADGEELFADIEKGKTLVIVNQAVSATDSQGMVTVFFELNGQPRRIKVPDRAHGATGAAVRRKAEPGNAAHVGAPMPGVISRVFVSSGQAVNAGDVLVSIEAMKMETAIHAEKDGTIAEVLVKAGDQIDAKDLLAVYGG

[2] = target: T2, Rhizobium etli pyruvate carboxylase (RePC) (Rhizobium etli, UniProt Q2K340, R427K); assay: coupled spectrophotometric assay; assay type: biochemical
T2 sequence (Q2K340 1-1154 R427K): T1 sequence (Q2K340 1-1154 R427S) with S427K

Compound: N[C@@H](CC(=O)O)C(=O)O [L-aspartate]
- Ki [1]: 7 ± 1 mM
- Ki [2]: 4.5 ± 0.6 mM
